This is an account of results in US7244734B2, “Hexa- and octahydro-pyrido[1,2-a]pyrazine derivatives with NK1 antagonistic activity” (Solvay Pharmaceuticals B.V., priority 2003, dated 2007).

The structures appear in SMILES notation.

Assay [1] deals with NK1 agonist-induced gerbil foot-tapping. Nature of the assay: NK1 agonist (GR 73632)-induced gerbil foot-tapping. The settings on record: Meriones unguiculatus, po, 60 min before anaesthesia; GR 73632 i.c.v.; male gerbils; read-out: In vivo antagonism Gerbil foot tapping p.o. ED50. As to the method: Concentration-response relationships were constructed by plotting cAMP conversion against compound concentration and IC50 values were calculated by four-parameter logistic regression. Antagonist potencies (pA2) values were calculated using: […] in which the IC50 of the test compound was obtained from concentration-effect relationships, [SP] is the concentration of substance P (in mol/l; typically 10 nM), and the EC50 is the potency of substance P at human cloned NK1 receptors. NK1 Agonist—Induced Gerbil Foot-Tapping
Therefore, we have used this model to assess the in vivo activity of the compounds of the invention.
60 min prior to anaesthesia with N2O (0.8 L/min), halothane (3%) and O2 (0.8 L/min) male gerbils (40-60 g; Charles River) received an injection of vehicle or test compound (p.o.). Upon successful narcosis the anaesthetic was adjusted to N2O (0.6 L/min), halothane (1.5%) and O2 (0.6 L/min) and a midline scalp incision made. GR 73632 was infused into the cerebroventricular space (AP−0.5 mm, L−1.2 mm, and vertical−4.5 mm from bregma). Following recovery from anaesthesia (about 3-4 min) the foot tapping response was recorded for 5 minutes. The predefined criterion for antagonism of this response was defined as inhibition of foot tapping for ≧5 min.

For a further assay, the target named is T1, human NK1 receptor (Homo sapiens, UniProt P25103).
T1 construct: expressed in transfected cells; membranes
T1 sequence (P25103 whole entry): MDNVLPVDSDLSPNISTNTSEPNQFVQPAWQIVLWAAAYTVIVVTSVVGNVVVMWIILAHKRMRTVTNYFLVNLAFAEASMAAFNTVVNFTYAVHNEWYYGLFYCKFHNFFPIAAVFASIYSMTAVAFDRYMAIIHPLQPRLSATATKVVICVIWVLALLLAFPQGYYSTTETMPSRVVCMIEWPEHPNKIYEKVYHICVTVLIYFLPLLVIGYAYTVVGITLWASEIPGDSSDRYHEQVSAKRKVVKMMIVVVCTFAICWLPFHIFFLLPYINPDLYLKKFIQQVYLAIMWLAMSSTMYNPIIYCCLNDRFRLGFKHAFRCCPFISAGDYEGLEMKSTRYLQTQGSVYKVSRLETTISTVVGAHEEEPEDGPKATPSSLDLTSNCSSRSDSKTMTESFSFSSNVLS
The experiment in a line: Receptor binding for human NK1 receptors ([3H]-substance P displacement, CHO cell membranes). The conditions noted are these: human NK1 receptor in CHO membranes, read-out: affinity NK-1 binding pKi (converted). As to the method: Receptor Binding for Human NK1 Receptors
Affinity of the compounds for human NK1 receptors was assessed using radio-receptor binding assays. Membrane preparations were prepared from Chinese Hamster Ovarium fibroblast (CHO) cells in which the human NK1 receptor was stably expressed. Membranes were incubated with [^3H]-substance P in the absence or the presence of specified concentrations of the compounds, diluted in a suitable buffer in presence of peptidase inhibitor for 10 min at 25° C. Separation of bound radioactivity from free was done by filtration over Whatman GF/B glass fiber filters with two 5 sec washings. Bound radioactivity was counted by liquid scintillation counting using a Betaplate counter. Measured radioactivity was plotted against the concentration of the displacing test compound and displacement curves were calculated by four-parameter logistic regression, resulting in IC50 values, i.e. that concentration of displacing compound by which 50% of the radioligand is displaced. Affinity pKI values were calculated by correcting the IC50 values for radioligand concentration and its affinity for the human NK1 receptor according to the Cheng-Prusoff equation: pKi=−log [IC50/(1+S/Kd)] in which the IC50 is as described above, S is the concentration [^3H]-substance P used in the assay expressed in mol/l, and Kd is the equilibrium dissociation constant of [^3H]-substance P for human NK1 receptors (in mol/l). cAMP Measurements

With `O=C(c1cc(C(F)(F)F)cc(C(F)(F)F)c1)N1C[C@H]2CCC(c3ccncc3)=CN2C[C@H]1Cc1c[nH]c2ccccc12` [Compound 1, (3R,9aR)-(3,5-bis(trifluoromethyl)phenyl)-[3-(1H-indol-3-ylmethyl)-7-pyridin-4-yl-1,3,4,8,9,9a-hexahydro-pyrido[1,2-a]pyrazin-2-yl]-methanone], the ED50 in assay [1] is 1.7 mg/kg. At human NK1 receptor, the Ki is 15.8 nM.

As to `O=C(c1cc(C(F)(F)F)cc(C(F)(F)F)c1)N1C[C@H]2CCC(c3cccnc3)=CN2C[C@H]1Cc1c[nH]c2ccccc12` [Compound 2, (3R,9aR)-(3,5-bis(trifluoromethyl)phenyl)-[3-(1H-indol-3-ylmethyl)-7-pyridin-3-yl-1,3,4,8,9,9a-hexahydro-pyrido[1,2-a]pyrazin-2-yl]-methanone], on human NK1 receptor, the Ki was 20 nM. `O=C(c1cc(C(F)(F)F)cc(C(F)(F)F)c1)N1C[C@H]2CCC(c3ccccn3)=CN2C[C@H]1Cc1c[nH]c2ccccc12` [Compound 3, (3R,9aR)-(3,5-bis(trifluoromethyl)phenyl)-[3-(1H-indol-3-ylmethyl)-7-pyridin-2-yl-1,3,4,8,9,9a-hexahydro-pyrido[1,2-a]pyrazin-2-yl]-methanone]: the ED50 in assay [1] is 2.2 mg/kg. On human NK1 receptor, the Ki was 3.16 nM. In the case of `O=C(c1cc(C(F)(F)F)cc(C(F)(F)F)c1)N1C[C@H]2CCC(c3cncnc3)=CN2C[C@H]1Cc1c[nH]c2ccccc12` [Compound 4, (3R,9aR)-(3,5-bis(trifluoromethyl)phenyl)-[3-(1H-indol-3-ylmethyl)-7-pyrimidin-5-yl-1,3,4,8,9,9a-hexahydro-pyrido[1,2-a]pyrazin-2-yl]-methanone], on human NK1 receptor, the Ki was 7.94 nM. For the molecule `O=C(c1cc(C(F)(F)F)cc(C(F)(F)F)c1)N1C[C@H]2CCC(c3cnccn3)=CN2C[C@H]1Cc1c[nH]c2ccccc12` [Compound 5, (3R,9aR)-(3,5-bis(trifluoromethyl)phenyl)-[3-(1H-indol-3-ylmethyl)-7-pyrazin-2-yl-1,3,4,8,9,9a-hexahydro-pyrido[1,2-a]pyrazin-2-yl]-methanone], at human NK1 receptor, the Ki was 2.51 nM.

Consider `O=C(c1cc(C(F)(F)F)cc(C(F)(F)F)c1)N1C[C@H]2CCC(c3ncccn3)=CN2C[C@H]1Cc1c[nH]c2ccccc12` [Compound 6, (3R,9aR)-(3,5-bis(trifluoromethyl)phenyl)-[3-(1H-indol-3-ylmethyl)-7-pyrimidin-2-yl-1,3,4,8,9,9a-hexahydro-pyrido[1,2-a]pyrazin-2-yl]-methanone], for which the Ki at human NK1 receptor was 1.58 nM.

For `O=C(c1cc(C(F)(F)F)cc(C(F)(F)F)c1)N1C[C@H]2CCC(c3nccs3)=CN2C[C@H]1Cc1c[nH]c2ccccc12` [Compound 7, (3R,9aR)-(3,5-bis(trifluoromethyl)phenyl)-[3-(1H-indol-3-ylmethyl)-7-thiazol-2-yl-1,3,4,8,9,9a-hexahydro-pyrido[1,2-a]pyrazin-2-yl]-methanone], the ED50 in assay [1] came to 3.4 mg/kg. Further, the Ki on human NK1 receptor was 0.631 nM.

Usually ED50 stands for the dose at which the effect has come halfway, by size or by number of responders.
